Test results: patent US20120270237A9, “METHODS FOR THE IDENTIFICATION OF KINASE INTERACTING MOLECULES AND FOR THE PURIFICATION OF KINASE PROTEINS” (Cellzone AG, priority 2009, published 2012)

How the values were obtained:
LOK = LOK (Homo sapiens, UniProt O94804); experiment: Kinobeads competition binding, HL60 cell lysate; set-up: Identified kinases with CZC31326 from HL60 lysate; endogenous in cells; host or cells: HL60; settings: 10 μM free compound
Procedure: (§1) To one aliquot of cell lysate 10 μM of the free compound (FIG. 3, CZC31326) was added and allowed to bind to proteins in the lysate. Then the affinity matrix with the immobilized compound (Example 1) was added to capture proteins that were not interacting with the previously added free compound. Beads were separated from the lysate and bead bound proteins were eluted in SDS sample buffer and subsequently separated by SDS-Polyacrylamide gel electrophoresis (FIG. 4). Suitable gel bands were cut out and subjected to in-gel proteolytic digestion with trypsin. The second lysate aliquot was processed identically, however no free compound was added (DMSO solvent control). Peptides originating from samples 1 and 2 were labeled with iTRAQ reagents (iTRAQ 114 and iTRAQ 117) and the combined samples were analyzed with a nano-flow liquid chromatography system coupled online to a tandem mass spectrometer (LC-MS/MS) experiment followed by iTRAQ reporter ion quantification in the MS/MS spectra (Ross et al., 2004. Mol. Cell. Proteomics 3(12):1154-1169). Further experimental protocols can be found in WO2006/134056 and a previous publication (Bantscheff et al., 2007. Nature Biotechnology 25, 1035-1044). Sepharose-beads with the immobilized compound (100 μl beads per pull-down experiment) were equilibrated in lysis buffer and incubated with a cell lysate sample containing 50 mg of protein on an end-over-end shaker (Roto Shake Genie, Scientific Industries Inc.) for 2 hours at 4° C. Beads were collected, transferred to Mobicol-columns (MoBiTech 10055) and washed with 10 ml lysis buffer containing 0.4% NP40 detergent, followed by 5 ml lysis buffer containing 0.2% detergent. To elute bound proteins, 60 μl 2×SDS sample buffer was added to the column. The column was incubated for 30 minutes at 50° C. and the eluate was transferred to a siliconized microfuge tube by centrifugation. Proteins were then alkylated with 108 mM iodoacetamid. Proteins were then separated by SDS-Polyacrylamide electrophoresis (SDS-PAGE). The peptide extracts of samples treated with 10 μM of free compound (CZC31326) and the solvent control (0.5% DMSO) were treated with different variants of the isobaric tagging reagent (iTRAQ Reagents Multiplex Kit, part number 4352135, Applied Biosystems, Foster City, Calif., USA). The iTRAQ reagents are a set of multiplexed, amine-specific, stable isotope reagents that can label peptides on amino groups in up to four different biological samples enabling simultaneous identification and quantitation of peptides. […] Relative protein quantitation was performed using peak areas of iTRAQ reporter ion signals essentially as described in an earlier publication (Bantscheff et al., 2007. Nature Biotechnology 25, 1035-1044).

LRRK2 = LRRK2 (Homo sapiens, UniProt Q5S007); experiment: Kinobeads competition binding, HL60 cell lysate; set-up: Identified kinases with CZC31326 from HL60 lysate; endogenous in cells; host or cells: HL60; settings: 10 μM free compound
Procedure: as §1

MAP2K3 = MAP2K3 (Homo sapiens, UniProt P46734); experiment: Kinobeads competition binding, HL60 cell lysate; set-up: Identified kinases with CZC31326 from HL60 lysate; endogenous in cells; host or cells: HL60; settings: 10 μM free compound
Procedure: as §1

BCR = BCR (Homo sapiens, UniProt P11274); experiment: Kinobeads competition binding, L-363 cell lysate; set-up: capturing and identification of kinases from L-363 cell lysate; endogenous in cells; host or cells: L-363 (DSMZ ACC49), treated with MG132 before harvest; settings: 10 μM free compound, L-363 lysate
Procedure: (§2) To one aliquot of cell lysate 10 μM of the free compound (FIG. 3, CZC31326) was added and allowed to bind to proteins in the lysate. Then the affinity matrix with the immobilized compound was added to capture proteins that were not interacting with the previously added free compound. Beads were separated from the lysate and bead bound proteins were eluted in SDS sample buffer and subsequently separated by SDS-Polyacrylamide gel electrophoresis (FIG. 8). Suitable gel bands were cut out and subjected to in-gel proteolytic digestion with trypsin. The second lysate aliquot was processed identically, however no free compound was added (DMSO solvent control). Peptides originating from samples 1 and 2 were labeled with iTRAQ reagents (iTRAQ 114 and iTRAQ 117) and the combined samples were analyzed with a nano-flow liquid chromatography system coupled online to a tandem mass spectrometer (LC-MS/MS) experiment followed by iTRAQ reporter ion quantification in the MS/MS spectra as described in Example 2.
(§3) For this experiment the human plasma cell leukaemia line L-363 was used (German Collection of Microorganisms and Cell Cultures, DSMZ number ACC49, Braunschweig, Germany). Cells were treated for three hours with 20 μM of the proteasome inhibitor MG132 (Z-Leu-Leu-Leu-al, Sigma C2211) prior to cell harvesting.

LYN = LYN (Homo sapiens, UniProt P07948); experiment: Kinobeads competition binding, L-363 cell lysate; set-up: capturing and identification of kinases from L-363 cell lysate; endogenous in cells; host or cells: L-363 (DSMZ ACC49), treated with MG132 before harvest; settings: 10 μM free compound, L-363 lysate
Procedure: as §2, §3

MAP2K6 = MAP2K6 (Homo sapiens, UniProt P52564); experiment: Kinobeads competition binding, L-363 cell lysate; set-up: capturing and identification of kinases from L-363 cell lysate; endogenous in cells; host or cells: L-363 (DSMZ ACC49), treated with MG132 before harvest; settings: 10 μM free compound, L-363 lysate
Procedure: as §2, §3

RIPK2 = RIPK2 (Homo sapiens, UniProt O43353); experiment: Kinobeads competition binding, L-363 cell lysate; set-up: capturing and identification of kinases from L-363 cell lysate; endogenous in cells; host or cells: L-363 (DSMZ ACC49), treated with MG132 before harvest; settings: 10 μM free compound, L-363 lysate
Procedure: as §2, §3

Sequence of BCR (P11274 whole entry): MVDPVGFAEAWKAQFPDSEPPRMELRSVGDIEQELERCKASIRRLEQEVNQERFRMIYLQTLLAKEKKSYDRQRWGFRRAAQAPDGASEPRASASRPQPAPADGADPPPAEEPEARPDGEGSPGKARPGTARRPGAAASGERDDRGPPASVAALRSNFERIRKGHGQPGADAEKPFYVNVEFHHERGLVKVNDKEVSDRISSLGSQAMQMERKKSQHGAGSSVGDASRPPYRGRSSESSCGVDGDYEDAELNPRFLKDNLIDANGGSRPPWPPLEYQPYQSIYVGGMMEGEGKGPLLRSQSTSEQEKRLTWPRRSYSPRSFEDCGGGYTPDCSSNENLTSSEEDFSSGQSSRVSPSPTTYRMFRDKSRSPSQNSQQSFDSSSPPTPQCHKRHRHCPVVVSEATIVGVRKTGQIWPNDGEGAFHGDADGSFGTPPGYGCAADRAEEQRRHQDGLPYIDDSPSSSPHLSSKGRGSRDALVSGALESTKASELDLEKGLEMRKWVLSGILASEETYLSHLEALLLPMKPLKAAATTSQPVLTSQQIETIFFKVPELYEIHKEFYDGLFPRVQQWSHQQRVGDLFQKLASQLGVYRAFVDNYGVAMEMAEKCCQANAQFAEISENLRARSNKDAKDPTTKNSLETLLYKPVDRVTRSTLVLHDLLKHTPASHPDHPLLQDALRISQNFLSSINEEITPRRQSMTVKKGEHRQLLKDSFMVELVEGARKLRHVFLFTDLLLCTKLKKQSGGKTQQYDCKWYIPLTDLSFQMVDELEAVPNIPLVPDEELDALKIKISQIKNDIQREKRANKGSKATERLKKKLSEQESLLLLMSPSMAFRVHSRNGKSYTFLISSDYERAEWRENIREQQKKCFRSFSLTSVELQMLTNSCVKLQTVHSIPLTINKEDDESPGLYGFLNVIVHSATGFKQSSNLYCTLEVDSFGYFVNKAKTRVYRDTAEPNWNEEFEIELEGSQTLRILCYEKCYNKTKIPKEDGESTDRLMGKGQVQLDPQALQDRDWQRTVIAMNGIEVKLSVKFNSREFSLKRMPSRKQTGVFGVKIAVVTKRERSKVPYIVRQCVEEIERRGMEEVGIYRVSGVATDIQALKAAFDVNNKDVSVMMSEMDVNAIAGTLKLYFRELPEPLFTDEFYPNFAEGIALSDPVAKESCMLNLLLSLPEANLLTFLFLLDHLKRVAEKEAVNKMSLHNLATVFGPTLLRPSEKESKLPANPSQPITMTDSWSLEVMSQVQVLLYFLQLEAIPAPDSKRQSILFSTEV
Sequence of LYN (P07948 whole entry): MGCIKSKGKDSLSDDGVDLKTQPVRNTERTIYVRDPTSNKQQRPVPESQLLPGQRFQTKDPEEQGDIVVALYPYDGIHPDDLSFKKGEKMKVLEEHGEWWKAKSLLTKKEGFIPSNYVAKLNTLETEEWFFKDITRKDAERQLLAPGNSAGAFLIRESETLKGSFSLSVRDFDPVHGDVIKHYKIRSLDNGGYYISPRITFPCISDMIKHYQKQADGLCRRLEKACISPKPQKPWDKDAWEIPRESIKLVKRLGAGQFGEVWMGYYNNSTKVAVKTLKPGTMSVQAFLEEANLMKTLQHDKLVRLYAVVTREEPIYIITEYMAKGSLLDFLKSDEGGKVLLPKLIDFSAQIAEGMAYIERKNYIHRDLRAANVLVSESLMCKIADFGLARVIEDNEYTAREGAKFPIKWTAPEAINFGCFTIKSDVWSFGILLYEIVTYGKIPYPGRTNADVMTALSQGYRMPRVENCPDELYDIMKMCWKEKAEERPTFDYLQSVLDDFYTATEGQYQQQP
Sequence of RIPK2 (O43353 whole entry): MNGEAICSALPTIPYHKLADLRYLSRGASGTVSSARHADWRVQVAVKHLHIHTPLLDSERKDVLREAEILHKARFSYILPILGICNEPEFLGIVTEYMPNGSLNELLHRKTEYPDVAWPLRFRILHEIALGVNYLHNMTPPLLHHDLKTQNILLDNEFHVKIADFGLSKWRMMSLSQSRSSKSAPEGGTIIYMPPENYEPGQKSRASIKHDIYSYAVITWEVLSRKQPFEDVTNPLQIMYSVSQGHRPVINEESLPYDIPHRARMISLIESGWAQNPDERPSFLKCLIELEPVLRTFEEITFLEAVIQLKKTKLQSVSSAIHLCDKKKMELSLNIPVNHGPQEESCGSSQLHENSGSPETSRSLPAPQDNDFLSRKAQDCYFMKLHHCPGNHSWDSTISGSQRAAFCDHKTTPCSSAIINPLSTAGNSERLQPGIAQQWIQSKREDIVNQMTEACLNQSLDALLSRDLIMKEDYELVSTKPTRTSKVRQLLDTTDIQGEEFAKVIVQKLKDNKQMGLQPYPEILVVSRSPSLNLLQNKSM
Sequence of MAP2K3 (P46734 whole entry): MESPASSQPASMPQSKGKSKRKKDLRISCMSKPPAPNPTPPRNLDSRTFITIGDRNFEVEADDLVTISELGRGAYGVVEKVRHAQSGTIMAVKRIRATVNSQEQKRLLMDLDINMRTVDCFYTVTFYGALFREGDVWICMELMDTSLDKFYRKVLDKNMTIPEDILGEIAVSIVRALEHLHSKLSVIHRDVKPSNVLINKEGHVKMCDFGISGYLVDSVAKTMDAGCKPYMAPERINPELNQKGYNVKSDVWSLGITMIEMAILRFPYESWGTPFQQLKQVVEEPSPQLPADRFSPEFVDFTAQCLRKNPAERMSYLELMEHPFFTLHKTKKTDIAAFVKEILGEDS
Sequence of MAP2K6 (P52564 whole entry): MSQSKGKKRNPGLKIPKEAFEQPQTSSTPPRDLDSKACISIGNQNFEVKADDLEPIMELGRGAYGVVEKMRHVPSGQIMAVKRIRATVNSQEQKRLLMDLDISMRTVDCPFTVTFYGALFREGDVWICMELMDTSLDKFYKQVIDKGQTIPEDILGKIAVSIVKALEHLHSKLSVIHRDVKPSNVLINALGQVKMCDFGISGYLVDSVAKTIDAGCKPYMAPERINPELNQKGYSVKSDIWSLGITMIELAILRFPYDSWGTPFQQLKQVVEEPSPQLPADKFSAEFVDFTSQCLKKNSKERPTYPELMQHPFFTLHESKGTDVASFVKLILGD
Sequence of LOK (O94804 whole entry): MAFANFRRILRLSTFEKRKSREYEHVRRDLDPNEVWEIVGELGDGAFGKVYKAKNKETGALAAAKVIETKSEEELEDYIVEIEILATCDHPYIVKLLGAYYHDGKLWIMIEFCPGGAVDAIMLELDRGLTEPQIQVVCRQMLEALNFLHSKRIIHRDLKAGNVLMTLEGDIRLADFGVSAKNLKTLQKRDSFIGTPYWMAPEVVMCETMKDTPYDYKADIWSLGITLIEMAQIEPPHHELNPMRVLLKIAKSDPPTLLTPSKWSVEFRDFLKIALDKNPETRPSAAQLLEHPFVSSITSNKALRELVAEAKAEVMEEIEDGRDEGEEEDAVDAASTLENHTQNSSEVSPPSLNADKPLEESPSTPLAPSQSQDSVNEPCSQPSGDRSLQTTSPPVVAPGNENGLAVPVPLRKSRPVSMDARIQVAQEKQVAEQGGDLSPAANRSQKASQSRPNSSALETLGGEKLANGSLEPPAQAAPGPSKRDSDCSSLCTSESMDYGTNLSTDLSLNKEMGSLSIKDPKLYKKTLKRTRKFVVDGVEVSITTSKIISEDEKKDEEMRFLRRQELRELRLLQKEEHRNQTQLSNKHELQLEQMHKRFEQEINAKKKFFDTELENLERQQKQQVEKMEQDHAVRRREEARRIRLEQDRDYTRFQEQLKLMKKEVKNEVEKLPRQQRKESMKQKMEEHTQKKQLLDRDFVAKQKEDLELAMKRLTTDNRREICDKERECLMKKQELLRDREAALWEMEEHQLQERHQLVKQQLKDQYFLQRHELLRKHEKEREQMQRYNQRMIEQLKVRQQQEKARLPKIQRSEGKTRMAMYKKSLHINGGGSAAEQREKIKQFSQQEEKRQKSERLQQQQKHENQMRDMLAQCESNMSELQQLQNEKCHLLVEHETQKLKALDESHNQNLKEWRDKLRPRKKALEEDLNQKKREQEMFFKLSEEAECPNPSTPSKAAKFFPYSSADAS

Competition % (LOK): 95.3%
inhibition at 10 µM (LRRK2): 71.7%
inhibition at 10 µM (MAP2K3): 90.9%
inhibition at 10 µM (BCR): 93.6%
inhibition at 10 µM (LYN): 94.5%
inhibition at 10 µM (MAP2K6): 94.2%
inhibition at 10 µM (RIPK2): 95.5%
Compound: CS(=O)(=O)Nc1ccccc1Nc1nc(Nc2cccc(OCCN)c2)ncc1Cl [CZC31326, N-(2-(2-(3-(2-aminoethoxy)phenylamino)-5-chloropyrimidin-4-ylamino)phenyl)methanesulfonamide]
